Assay results as given in article PMC10389763, “BlaPSZ-1, a novel AmpC gene identified from a Pantoea isolate” (Frontiers in Microbiology, 2023).

Target: T1, PSZ-1 (AmpC β-lactamase)
T1 construct: gene blaPSZ-1; recombinant PSZ-1 from pCold I in E. coli BL21, His-tag removed with thrombin
Assay: inhibition of nitrocefin hydrolysis, […] min preincubation, […]°C
Type: biochemical, Pantoea endophytica

Structure (SMILES)	IC50 [µM]
NC(=O)[C@@H]1CC[C@@H]2CN1C(=O)N2OS(=O)(=O)O [avibactam]	0.0555
C[C@]1(Cn2ccnn2)[C@H](C(=O)O)N2C(=O)C[C@H]2S1(=O)=O [tazobactam]	7.96
